Reference: PubChem BioAssay (NCI)
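Test compounds were applied to cells in 96-well plates for 48 hours at 5 doses. GI50 is the concentration that inhibits growth by half. TGI denotes the concentration required for complete inhibition of growth.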

Tests used:
Assay in all cases: NCI tumour cell line growth inhibition, 48 h
MOLT-4 leukemia = system: MOLT-4 leukemia
LOX IMVI melanoma = system: LOX IMVI melanoma
OVCAR-5 ovarian = system: OVCAR-5 ovarian
NCI-H460 lung = system: NCI-H460 lung
MDA-MB-231 breast = system: MDA-MB-231 breast
HS 578T breast = system: HS 578T breast
SNB-75 CNS = system: SNB-75 CNS
UO-31 renal = system: UO-31 renal
HL-60(TB) leukemia = system: HL-60(TB) leukemia
SF-539 CNS = system: SF-539 CNS

O=C(O)C(=O)/C=C(\O)c1ccc(Br)cc1
TGI (MOLT-4 leukemia): > 100 µM | TGI (LOX IMVI melanoma): > 100 µM | TGI (OVCAR-5 ovarian): > 100 µM | TGI (NCI-H460 lung): > 100 µM | TGI (MDA-MB-231 breast): > 100 µM | TGI (HS 578T breast): > 100 µM | TGI (SNB-75 CNS): > 100 µM | TGI (UO-31 renal): > 100 µM | TGI (HL-60(TB) leukemia): > 100 µM

Cc1nc2ccccc2c(/C=C/c2ccc(Cl)cc2)c1C(=O)/C=C/c1ccccc1
GI50 (MOLT-4 leukemia): 0.884 µM | TGI (MOLT-4 leukemia): 4.88 µM | GI50 (LOX IMVI melanoma): 1.64 µM | TGI (LOX IMVI melanoma): 3.03 µM | GI50 (OVCAR-5 ovarian): 1.83 µM | TGI (OVCAR-5 ovarian): 3.39 µM | GI50 (NCI-H460 lung): 1.39 µM | TGI (NCI-H460 lung): 3.14 µM | GI50 (MDA-MB-231 breast): 1.87 µM | TGI (MDA-MB-231 breast): 4.37 µM | GI50 (SF-539 CNS): 1.7 µM | TGI (SF-539 CNS): 3.11 µM | GI50 (UO-31 renal): 1.18 µM | TGI (UO-31 renal): 2.4 µM | GI50 (HL-60(TB) leukemia): 2.01 µM | TGI (HL-60(TB) leukemia): 4.58 µM

CCOc1ccc2c(c1)c(=O)c1c(NCCN(CC)CC)ccc3nnn2c31
TGI (MOLT-4 leukemia): > 59.9 µM | TGI (LOX IMVI melanoma): 32 µM | TGI (OVCAR-5 ovarian): > 54.8 µM | TGI (NCI-H460 lung): > 57.8 µM | TGI (MDA-MB-231 breast): 58.5 µM | TGI (HS 578T breast): > 100 µM | TGI (SF-539 CNS): 24.1 µM

[N-]=[N+]=C(C(=O)N1CCCC1=O)S(=O)(=O)c1ccccc1
TGI (MOLT-4 leukemia): > 100 µM | TGI (LOX IMVI melanoma): > 100 µM | TGI (NCI-H460 lung): > 100 µM | TGI (MDA-MB-231 breast): > 100 µM | TGI (HS 578T breast): > 100 µM | TGI (SNB-75 CNS): > 100 µM | TGI (SF-539 CNS): > 100 µM | TGI (UO-31 renal): > 100 µM | TGI (HL-60(TB) leukemia): > 100 µM

O=C1C(=Cc2ccc(Cl)c(Cl)c2)C([O-])=C([P+](c2ccccc2)(c2ccccc2)c2ccccc2)C([O-])=C1[P+](c1ccccc1)(c1ccccc1)c1ccccc1
TGI (MOLT-4 leukemia): 3.84 µM | TGI (LOX IMVI melanoma): 2.67 µM | TGI (OVCAR-5 ovarian): 12.6 µM | TGI (NCI-H460 lung): 10.9 µM | TGI (MDA-MB-231 breast): 8.78 µM | TGI (HS 578T breast): 12.7 µM | TGI (SNB-75 CNS): 15.9 µM | TGI (SF-539 CNS): 5.17 µM | TGI (UO-31 renal): 8.89 µM | TGI (HL-60(TB) leukemia): 3.18 µM

COc1ccc(Nc2nc(N)c(C(=O)c3cccs3)s2)cc1
TGI (MOLT-4 leukemia): 17.2 µM | TGI (LOX IMVI melanoma): > 100 µM | TGI (OVCAR-5 ovarian): > 79.7 µM | TGI (NCI-H460 lung): 11.1 µM | TGI (MDA-MB-231 breast): > 80.8 µM | TGI (HS 578T breast): > 61.9 µM | TGI (SF-539 CNS): 19.5 µM | TGI (UO-31 renal): > 41.1 µM | TGI (HL-60(TB) leukemia): > 22.8 µM

N#CC(C#N)=C1C(=O)NC(N)=C1C#N
TGI (MOLT-4 leukemia): > 100 µM | TGI (LOX IMVI melanoma): > 100 µM | TGI (OVCAR-5 ovarian): > 100 µM | TGI (NCI-H460 lung): > 100 µM | TGI (MDA-MB-231 breast): > 100 µM | TGI (HS 578T breast): > 100 µM | TGI (UO-31 renal): > 100 µM | TGI (HL-60(TB) leukemia): > 100 µM

CNc1ncnc2c1cnn2Cc1cn(COCC(O)CO)nn1 (centres undefined)
TGI (LOX IMVI melanoma): > 100 µM | TGI (OVCAR-5 ovarian): > 100 µM | TGI (MDA-MB-231 breast): > 100 µM | TGI (HS 578T breast): 20.3 µM | TGI (SF-539 CNS): > 100 µM | TGI (UO-31 renal): > 100 µM | TGI (HL-60(TB) leukemia): > 100 µM

CCOC(=O)N1CCC(=C2c3ccc(Cl)cc3CCc3cccnc32)CC1
TGI (MOLT-4 leukemia): 33.3 µM | TGI (LOX IMVI melanoma): 74.6 µM | TGI (OVCAR-5 ovarian): 37.9 µM | TGI (NCI-H460 lung): 18.9 µM | TGI (MDA-MB-231 breast): 42.5 µM | TGI (HS 578T breast): > 100 µM | TGI (UO-31 renal): 4.49 µM | TGI (HL-60(TB) leukemia): 22.9 µM

NC1CC=C(COC(=O)C(O)(c2ccccc2)C2CC2)CC1 (centres undefined)
TGI (MOLT-4 leukemia): > 100 µM | TGI (LOX IMVI melanoma): > 100 µM | TGI (OVCAR-5 ovarian): > 100 µM | TGI (MDA-MB-231 breast): > 100 µM | TGI (SNB-75 CNS): > 100 µM | TGI (SF-539 CNS): > 100 µM | TGI (UO-31 renal): > 100 µM

O=C(CSc1nc2ccccc2c(=O)n1-c1ccccc1)N=Nc1c(O)[nH]c2ccc(F)cc12
TGI (MOLT-4 leukemia): 3.43 µM | TGI (LOX IMVI melanoma): > 100 µM | TGI (OVCAR-5 ovarian): 4.73 µM | TGI (NCI-H460 lung): 4.69 µM | TGI (MDA-MB-231 breast): 4.79 µM | TGI (HS 578T breast): > 100 µM | TGI (SF-539 CNS): 9.21 µM | TGI (UO-31 renal): 3.73 µM | TGI (HL-60(TB) leukemia): 3.96 µM

CC1(C)N=C(c2ccccn2)C(c2ccccn2)=NC1(C)C
TGI (MOLT-4 leukemia): > 100 µM | TGI (LOX IMVI melanoma): > 100 µM | TGI (OVCAR-5 ovarian): > 100 µM | TGI (NCI-H460 lung): > 100 µM | TGI (SF-539 CNS): > 100 µM | TGI (UO-31 renal): > 100 µM | TGI (HL-60(TB) leukemia): > 100 µM

CCOC(=O)C(NC(=O)OC(C)(C)C)C(=O)OCC
TGI (MOLT-4 leukemia): > 100 µM | TGI (OVCAR-5 ovarian): > 100 µM | TGI (NCI-H460 lung): > 100 µM | TGI (HS 578T breast): > 100 µM | TGI (SNB-75 CNS): > 100 µM | TGI (UO-31 renal): > 100 µM

Brc1ccc2c(-c3csc(-c4c[nH]c5ccccc45)n3)c[nH]c2c1
GI50 (MOLT-4 leukemia): 19.9 µM | TGI (MOLT-4 leukemia): 36.3 µM | TGI (LOX IMVI melanoma): 29.6 µM | TGI (OVCAR-5 ovarian): 32.7 µM | TGI (NCI-H460 lung): 34.4 µM | TGI (MDA-MB-231 breast): 31 µM | TGI (SNB-75 CNS): 46.4 µM | TGI (SF-539 CNS): 30.8 µM | TGI (UO-31 renal): 27.6 µM

CCCCNC(=O)/N=C/c1c(O)c2ccccc2oc1=O
TGI (MOLT-4 leukemia): > 100 µM | TGI (LOX IMVI melanoma): > 100 µM | TGI (OVCAR-5 ovarian): > 100 µM | TGI (NCI-H460 lung): > 100 µM | TGI (SF-539 CNS): > 100 µM | TGI (UO-31 renal): 56.3 µM | TGI (HL-60(TB) leukemia): 57.4 µM

CC(=O)Nc1ccccc1NC1CC(C)N(c2ccccc2)N1C(C)=O (centres undefined)
TGI (MOLT-4 leukemia): > 10 µM | TGI (MDA-MB-231 breast): > 10 µM | TGI (SNB-75 CNS): > 10 µM | TGI (HL-60(TB) leukemia): > 10 µM

O=c1oc2ccccc2c(O)c1C(C/C(CCN1CCCC1)=N\Nc1ccccc1)c1ccccc1 (centres undefined)
TGI (LOX IMVI melanoma): > 100 µM | TGI (OVCAR-5 ovarian): > 100 µM | TGI (NCI-H460 lung): > 100 µM | TGI (SNB-75 CNS): > 100 µM | TGI (SF-539 CNS): > 100 µM | TGI (UO-31 renal): > 100 µM | TGI (HL-60(TB) leukemia): 60 µM

Cc1ccc([N+](=O)[O-])c2c(NCC(O)CO)ccnc12 (centres undefined)
TGI (MOLT-4 leukemia): > 100 µM | TGI (LOX IMVI melanoma): > 100 µM | TGI (OVCAR-5 ovarian): > 100 µM | TGI (NCI-H460 lung): 53.2 µM | TGI (HS 578T breast): > 100 µM | TGI (SNB-75 CNS): > 100 µM | TGI (SF-539 CNS): 48.6 µM | TGI (UO-31 renal): > 100 µM | TGI (HL-60(TB) leukemia): > 100 µM

Oc1ccc(Cl)cc1C1=NC(/N=C\c2ccccc2)=NC(c2ccccc2)C1 (centres undefined)
TGI (MOLT-4 leukemia): > 100 µM | TGI (OVCAR-5 ovarian): > 100 µM | TGI (MDA-MB-231 breast): > 100 µM | TGI (HS 578T breast): > 100 µM | TGI (SNB-75 CNS): 64.7 µM | TGI (SF-539 CNS): > 100 µM | TGI (UO-31 renal): 74.1 µM

COc1ccc(Sc2ccccc2N)cc1
TGI (MOLT-4 leukemia): > 100 µM | TGI (LOX IMVI melanoma): > 100 µM | TGI (OVCAR-5 ovarian): > 100 µM | TGI (NCI-H460 lung): > 100 µM | TGI (SNB-75 CNS): 62.2 µM | TGI (SF-539 CNS): > 100 µM | TGI (UO-31 renal): 92.9 µM | TGI (HL-60(TB) leukemia): 60.9 µM

Cn1c(O)c(C=Nc2ccccc2Cl)c(=O)n(C)c1=O
TGI (MOLT-4 leukemia): 61.5 µM | TGI (LOX IMVI melanoma): 32.2 µM | TGI (OVCAR-5 ovarian): 63.2 µM | TGI (NCI-H460 lung): 32.8 µM | TGI (MDA-MB-231 breast): > 100 µM | TGI (HS 578T breast): > 100 µM | TGI (SNB-75 CNS): > 100 µM | TGI (SF-539 CNS): 60.7 µM | TGI (UO-31 renal): > 100 µM

CN(Cc1cc(Cl)c(Cl)cc1NC(=O)CN)[C@H]1CCCC[C@@H]1N1CCCC1
TGI (MOLT-4 leukemia): > 100 µM | TGI (LOX IMVI melanoma): 32.3 µM | TGI (OVCAR-5 ovarian): > 100 µM | TGI (NCI-H460 lung): 57.8 µM | TGI (MDA-MB-231 breast): > 100 µM | TGI (HS 578T breast): 58.5 µM | TGI (SNB-75 CNS): > 100 µM | TGI (UO-31 renal): > 100 µM | TGI (HL-60(TB) leukemia): > 100 µM

O=C1NCCS(=O)(=O)N2CCC[C@@H]12
TGI (MOLT-4 leukemia): > 100 µM | TGI (LOX IMVI melanoma): > 100 µM | TGI (OVCAR-5 ovarian): > 100 µM | TGI (NCI-H460 lung): > 100 µM | TGI (SNB-75 CNS): > 100 µM | TGI (SF-539 CNS): > 100 µM | TGI (UO-31 renal): > 100 µM | TGI (HL-60(TB) leukemia): > 100 µM

Cc1ccc(CCC(=O)C(=O)O)s1
TGI (MOLT-4 leukemia): > 100 µM | TGI (OVCAR-5 ovarian): > 100 µM | TGI (NCI-H460 lung): > 100 µM | TGI (SNB-75 CNS): > 100 µM | TGI (SF-539 CNS): > 100 µM | TGI (UO-31 renal): > 100 µM | TGI (HL-60(TB) leukemia): > 100 µM

COc1ccc2c(c1)OC[C@@H]1c3cc(O)c(OCc4ccccc4)cc3O[C@H]21
TGI (MOLT-4 leukemia): > 100 µM | TGI (LOX IMVI melanoma): > 100 µM | TGI (OVCAR-5 ovarian): > 100 µM | TGI (NCI-H460 lung): 35.7 µM | TGI (SNB-75 CNS): 65.4 µM | TGI (SF-539 CNS): > 100 µM | TGI (UO-31 renal): 75.9 µM | TGI (HL-60(TB) leukemia): 52 µM
